Measured values taken from publication PMC4372254, “Unlocking the Diversity of Alkaloids in Catharanthus roseus: Nuclear Localization Suggests Metabolic Channeling in Secondary Metabolism” (Chemistry & Biology, 2015).

Legend:
[1] = target: T1, THAS (tetrahydroalstonine synthase) (Catharanthus roseus, UniProt A0A0F6SD02); test: isothermal titration calorimetry; assay type: binding
T1 construct: His-tagged, vector pOPINF, expressed in E. coli Rosetta 2 pLysS, HisTrap purified
T1 sequence (A0A0F6SD02 1-356): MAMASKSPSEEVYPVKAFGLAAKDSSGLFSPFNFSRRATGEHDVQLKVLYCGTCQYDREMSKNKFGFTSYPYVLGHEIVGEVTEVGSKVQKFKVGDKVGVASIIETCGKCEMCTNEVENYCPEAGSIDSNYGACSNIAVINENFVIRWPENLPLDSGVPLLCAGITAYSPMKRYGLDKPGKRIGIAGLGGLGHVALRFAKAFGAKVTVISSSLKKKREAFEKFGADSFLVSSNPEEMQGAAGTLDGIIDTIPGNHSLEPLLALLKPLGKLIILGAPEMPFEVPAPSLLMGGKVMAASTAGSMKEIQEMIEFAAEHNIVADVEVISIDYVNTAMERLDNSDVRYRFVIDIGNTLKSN

[2] = target: T2, SGD (strictosidine glucosidase) (Catharanthus roseus, UniProt Q9M7N7); test: in situ deglycosylation, […] min incubation; assay type: biochemical; conditions: strictosidine aglycone formed
T2 construct: recombinant, purified as THAS, expression system of Yerkes et al. 2008

SMILES	Kd [1] [nM]	in situ deglycosylation, 10 min incubation [2]
NC(=O)C1=CN([C@@H]2O[C@H](COP(=O)(O)OP(=O)(O)OC[C@H]3O[C@@H](n4cnc5c(N)ncnc54)[C@H](OP(=O)(O)O)[C@@H]3O)[C@@H](O)[C@H]2O)C=CC1 [NADPH]	1500 ± 100	
C=C[C@H]1[C@H](O[C@@H]2O[C@H](CO)[C@@H](O)[C@H](O)[C@H]2O)OC=C(C(=O)OC)[C@H]1C[C@@H]1NCCc2c1[nH]c1ccccc21 [strictosidine]		strictosidine was completely converted to the aglycone
